Experimental data as given in US6596772B1, “Phosphate mimics and methods of treatment using phosphatase inhibitors” (Sugen, Inc., priority 1999, dated 2003).

Legend:
Assay in all cases: PTP IC50 assay, pNPP or FDP as substrate
Format in all cases: biochemical
PTP SHP2 = target: T1, PTP SHP2 (Homo sapiens, UniProt Q06124); settings: pNPP or FDP as substrate, 25° C.; read-out: PTP IC50 SHP2
T1 construct: The catalytic domain was amplified using the following oligonucleotides; made in house; host or cells: Sf-9 insect cells (pFastBac-G2T)
T1 sequence (Q06124 247-517 limits assumed): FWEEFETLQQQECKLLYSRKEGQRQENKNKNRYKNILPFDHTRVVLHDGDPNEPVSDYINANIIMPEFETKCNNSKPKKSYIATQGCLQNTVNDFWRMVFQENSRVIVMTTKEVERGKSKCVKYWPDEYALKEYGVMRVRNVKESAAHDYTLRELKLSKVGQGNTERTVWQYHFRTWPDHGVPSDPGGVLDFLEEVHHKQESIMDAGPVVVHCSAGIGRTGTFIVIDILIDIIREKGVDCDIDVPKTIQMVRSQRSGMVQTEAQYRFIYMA
Procedure: (§1) The following in vitro assay procedure is preferred to determine the level of activity and effect of the different compounds of the present invention on one or more of the PTPs. Similar assays can be designed along the same lines for any PTP using techniques well known in the art.
(§2) The catalytic assays described herein are performed in a 96-well format. The general procedure begins with the determination of PTP optimal pH using a three-component buffer system that minimizes ionic strength variations across a wide range of buffer pH. Next, the Michaelis-Menten constant, or Km, is determined for each specific substrate-PTP system. This Km value is subsequently used as the substrate reaction concentration for compound screening. Finally, the test PTP is exposed to varying concentrations of compound for fifteen minutes and allowed to react with substrate for ten minutes. The results are plotted as percent inhibition versus compound concentration and the IC50 interpolated from the plot.
(§3) All assays were performed using pNPP or FDP as substrate. The optimum pH was determined for each PTP used.
(§4) PTPase activity was assayed at 25° C. in a 100-μl reaction mixture containing an appropriate concentration of pNPP or FDP as substrate. The reaction was initiated by addition of the PTP and quenched after 10 min by addition of 50 μl of IN NaOH. The non-enzymatic hydrolysis of the substrate was corrected by measuring the control without the addition of the enzyme. The amount of p-nitrophenol produced was determined from the absorbance at 410 nm. To determine the kinetic parameter, Km, the initial velocities were measured at various substrate concentrations and the data were fitted to the Michaelis equation where velocity=(Vmax*[S])/(Km+[S]), and [S]=substrate reaction concentration.
(§5) The effect of the compounds on PTP was evaluated at 25° C. using pNPP or FDP as substrate. PTP was pre-incubated for fifteen minutes with various concentrations of compound. Substrate was then added at a fixed concentration (usually equal to the Km previously calculated). After 10 minutes, NaOH was added to stop the reaction. The hydrolysis of pNPP was followed at 410 nm on the Biotek Powerwave 200 microplate scanning spectrophotometer. The percent inhibition was calculated as follows: Percent Inhibition=[(control signal−compound signal)/control signal] ×100%. The IC50 was then determined by interpolation of a percent inhibition versus compound concentration plot.
(§6) Plasmids designed for bacterial GST-PTP fusion protein expression were derived by insertion of PCR-generated human PTP fragments into pGEX vectors (Pharmacia Biotech). Several of these constructs were then used to subclone phosphatases into pFastBac-1for expression in Sf-9 insect cells. Oligonucleotides used for the initial amplification of PTP genes are shown below. The cDNAs were prepared using the Gilbo BRL superscript preamplification system on RNAs purchased from Clontech.
SHP-2 cDNA was used as described earlier (Vogel W., et al.,1993, Science, 259:1611-4). The catalytic domain was amplified using the following oligonucleotides 5′oligo: 5′-[…]-3′ (SEQ ID NO: 2) 3′oligo: 5′-[…]-3′ (SEQ ID NO: 3) and subsequently subcloned into BamH1-Xba-1 sites. It was then ligated into pfas Bac-G2T BamH1-Xba-1 sites.

PTP EPSILON = target: T2, PTP EPSILON (Homo sapiens, UniProt P23469); settings: pNPP or FDP as substrate, 25° C.; read-out: PTP IC50 Epilson
T2 construct: made in house; host or cells: Sf-9 insect cells (pFastBac-G2T); a pGEX 6P-1 construct also existed
T2 sequence (P23469 80-393 limits assumed): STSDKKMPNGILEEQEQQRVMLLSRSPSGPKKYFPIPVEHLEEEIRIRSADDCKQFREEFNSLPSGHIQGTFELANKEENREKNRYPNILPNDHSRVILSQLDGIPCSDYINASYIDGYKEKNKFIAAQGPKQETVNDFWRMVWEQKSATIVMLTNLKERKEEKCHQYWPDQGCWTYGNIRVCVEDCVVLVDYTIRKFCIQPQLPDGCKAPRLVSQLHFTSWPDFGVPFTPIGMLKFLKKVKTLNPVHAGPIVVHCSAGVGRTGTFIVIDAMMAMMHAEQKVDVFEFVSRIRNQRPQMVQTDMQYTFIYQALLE
Procedure: as §1, §2, §3, §4, §5, §6
The PTPepsilon cDNA was amplified from human placenta single-strand cDNA (Clontech RNA) using the following oligonucleotides: 5′oligo: 5′-[…]-3′ (SEQ ID NO: 6) 3′oligo: 5′-[…]-3′ (SEQ ID NO: 7) After cloning this PCR product into the Bam HI/Xho I sites of pGEX 6P-1, this phosphatase was subcloned using the same restriction sites in pFastBac-G2T.

PTP SIGMA = target: T3, PTP SIGMA (Homo sapiens, UniProt Q13332); settings: pNPP or FDP as substrate, 25° C.; read-out: PTP IC50 Sigma
T3 construct: made in house; host or cells: E. coli BL-21 (pGEX 6P-1)
T3 sequence (Q13332 1320-1660 limits assumed): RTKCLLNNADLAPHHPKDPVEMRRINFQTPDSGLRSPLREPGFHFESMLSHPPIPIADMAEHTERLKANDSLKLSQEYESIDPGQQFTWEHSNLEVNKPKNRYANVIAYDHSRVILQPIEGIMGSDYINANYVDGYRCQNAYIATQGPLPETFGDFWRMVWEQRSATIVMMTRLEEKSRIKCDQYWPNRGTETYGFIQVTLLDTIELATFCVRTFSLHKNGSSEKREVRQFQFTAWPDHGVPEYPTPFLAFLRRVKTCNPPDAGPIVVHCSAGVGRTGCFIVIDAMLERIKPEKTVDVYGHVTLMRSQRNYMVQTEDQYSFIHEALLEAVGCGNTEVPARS
Procedure: as §1, §2, §3, §4, §5, §6
The PTP Sigma cDNA was amplified from human brain single strand cDNA (Clontech RNA) using the following oligonucleotides: 5′oligo: 5′-[…]-3′ (SEQ ID NO: 12) 3′oligo: 5′-[…]-3′ (SEQ ID NO: 13) and subsequently ligated into pGex 6P-1 Eco RI/Xho I sites.

PTP ALPHA = target: T4, PTP ALPHA (Homo sapiens, UniProt P18433); settings: 25° C.
T4 construct: RTPα intracellular domain construct was obtained; made in house; host or cells: E. coli BL-21 (pGEX 3X)
Procedure: as §1, §2, §3, §4, §5, §6
RTPα intracellular domain construct was obtained, Schlessinger et al., U.S. Pat. No. 5,888,794, the contents of which are hereby incorporated in their entirety into the present application. The RTPα fragment was cloned into pGEX 3× using the following procedure. The portion from EclX I/Xma III/Eag I (N-terminus blunted by Klenow) to Eco RV was cloned into the Sma I site. The EclX I site is approximately 15 residues downstream of the transmembrane domain.

PTP MU = target: T5, PTP MU (Homo sapiens, UniProt P28827); settings: pNPP or FDP as substrate, 25° C.; read-out: PTP IC50 Mu
T5 construct: made in house; host or cells: E. coli BL-21 (pGEX 6P-1)
T5 sequence (P28827 831-1186 limits assumed): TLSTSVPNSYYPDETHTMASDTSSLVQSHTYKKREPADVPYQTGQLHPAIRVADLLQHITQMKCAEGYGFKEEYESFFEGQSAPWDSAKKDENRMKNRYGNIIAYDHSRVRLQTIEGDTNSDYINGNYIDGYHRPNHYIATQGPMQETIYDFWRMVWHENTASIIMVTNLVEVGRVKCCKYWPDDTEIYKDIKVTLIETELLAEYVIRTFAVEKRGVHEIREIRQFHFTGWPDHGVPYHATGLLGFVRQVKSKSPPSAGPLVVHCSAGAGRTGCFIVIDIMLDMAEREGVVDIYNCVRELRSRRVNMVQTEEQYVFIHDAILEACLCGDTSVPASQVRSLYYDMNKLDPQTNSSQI
Procedure: as §1, §2, §3, §4, §5, §6
The PTP Mu cDNA was amplified from a human lung cDNA library (Clontech) using the following oligonucleotides; 5′oligo: 5′-[…]-3′ (SEQ ID NO: 18) 3′oligo: 5′-[…]-3′ (SEQ ID NO: 19) It was subsequently ligated into the Eco RI/Xho I sites of pGEX 6P-1.

Row | SMILES | IC50 (PTP SHP2) | IC50 (PTP EPSILON) | IC50 (PTP SIGMA) | IC50 (PTP ALPHA) | IC50 (PTP MU)
1 | O=C(c1ccccc1)N(Cc1ccc(S(=O)(=O)C(F)(F)F)cc1)Cc1ccc(S(=O)(=O)C(F)(F)F)cc1 [Example 3, N,N-Bis(4-trifluoromethylsulfonylbenzyl)benzamide] | 74.5 µM | 28.1 µM | 42.6 µM | > 100 µM | > 100 µM
2 | O=S(=O)(c1ccc(CCc2ccc(S(=O)(=O)C(F)(F)F)cc2)cc1)C(F)(F)F [Example 4, 1,2-Bis(4-trifluoromethylsulfonylphenyl)ethane] | > 100 µM | 16.6 µM | 81.1 µM | > 100 µM | > 100 µM
3 | O=C(NCc1ccc(S(=O)(=O)C(F)(F)F)cc1)c1ccc(S(=O)(=O)C(F)(F)F)cc1 [Example 5, N-(4-Trifluoromethylsulfonylbenzyl)-4-trifluoromethylsulfonylbenzamide] | > 100 µM | 38.6 µM | > 100 µM | > 100 µM | > 100 µM
4 | O=C(NCc1ccc(S(=O)(=O)C(F)(F)F)cc1)c1ccccc1 [Example 6, N-(4-Trifluoromethylsulfonylbenzyl)benzamide] | > 100 µM | > 100 µM | > 100 µM | > 100 µM | > 100 µM
5 | CCOC(=O)COc1ccc(S(=O)(=O)c2ccc(Oc3ccc(S(=O)(=O)C(F)(F)F)cc3)cc2)cc1 [Example 19, {4-[4-(4-trifluoromethanesulfonyl-phenoxy)-benzenesulfonyl]-phenoxy}-acetic acid ethyl ester] | > 100 µM | 31.4 µM | 93.3 µM | > 100 µM | 69.5 µM

These reach a lower IC50 (PTP SHP2). Values come first.

Row | IC50 (PTP SHP2) | IC50 (PTP EPSILON) | IC50 (PTP SIGMA) | IC50 (PTP ALPHA) | IC50 (PTP MU) | SMILES
6 | 2 µM | 24.3 µM | > 100 µM | > 100 µM | > 100 µM | O=S(=O)(c1ccc(COCc2ccc(S(=O)(=O)C(F)(F)F)cc2)cc1)C(F)(F)F [Example 1, Bis (4-trifluoromethylsulfonylbenzyl) ether]
7 | 42.6 µM | 8.1 µM | 30.5 µM | > 100 µM | > 100 µM | O=S(=O)(c1ccc(COc2ccc(S(=O)(=O)C(F)(F)F)cc2)cc1)C(F)(F)F [Example 2, 4-Trifluoromethylsulfonylbenzyl 4-trifluoromethylsulfonylphenyl ether]
8 | 18.4 µM | 0.77 µM | 22.1 µM | 40.4 µM | 21.6 µM | O=C(O)c1ccc(Oc2cccc(Oc3ccc(S(=O)(=O)C(F)(F)F)cc3)c2)cc1 [Example 18, 4-[3-(4-Trifluoromethanesulfonyl-phenoxy)-phenoxy]-benzoic acid]
9 | 54.3 µM | 7.5 µM | 22.9 µM | > 100 µM | 37.9 µM | O=C(Cc1ccccc1CC(=O)Nc1cccc(S(=O)(=O)C(F)(F)F)c1)Nc1cccc(S(=O)(=O)C(F)(F)F)c1 [Example 20, N-(3-Trifluoromethanesulfonyl-phenyl)-2-{2-[(3-trifluoromethanesulfonyl-phenylcarbamoyl)-methyl]-phenyl}-acetamide]
10 | 56.8 µM | 57.8 µM | 21.1 µM | > 100 µM | 47.7 µM | O=C(Cc1cccc(CC(=O)Nc2cccc(S(=O)(=O)C(F)(F)F)c2)c1)Nc1cccc(S(=O)(=O)C(F)(F)F)c1 [Example 21, N-(3-Trifluoromethanesulfonyl-phenyl)-2-{3-[(3-trifluoromethanesulfonyl-phenylcarbamoyl)-methyl]-phenyl}-acetamide]
11 | 16.3 µM | 8.3 µM | 7.8 µM | > 100 µM | 17.4 µM | O=C(Cc1ccc(CC(=O)Nc2cccc(S(=O)(=O)C(F)(F)F)c2)cc1)Nc1cccc(S(=O)(=O)C(F)(F)F)c1 [Example 22, N-(3-Trifluoromethanesulfonyl-phenyl)-2-{4-[(3-trifluoromethanesulfonyl-phenylcarbamoyl)-methyl]-phenyl}-acetamide]
